Where “and” joins values, the source holds several entries; their conditions need not be identical. Identical values can stand only once. Blank lines part the entries; values can stand above or below the compound they belong to.
Key:
A431 cells [1] = test: Alkaline comet assay for DNA damage in A431 cells; details: for DNA damage (comet tail moment): A431, 30 min or 2 h exposure
Method: A431 cells were exposed to drugs for 30 min or 2 h, and harvested with trypsin-EDTA. The cells were subsequently collected by centrifugation and re-suspended in PBS. The resulting cell suspension was diluted to approximately 10^6 cells, and mixed with agarose (1%) in PBS at 37° C. in a 1:10 dilution. The gels were cast on Gelbond strips (Mandel Scientific, Guelph, Canada) using gel casting chambers, as previously described (32), then immediately placed into a lysis buffer [2.5 M NaCl, 0.1 M tetra-sodium EDTA, 10 mM tris-base, 1% (w/v) N-lauryl sarcosine, 10% (v/v) DMSO and 1% (v/v) Triton X-100]. After being kept on ice for 30 min, the gels were gently rinsed with distilled water and then immersed in a second lysis buffer [2.5 M NaCl, 0.1 M tetra-sodium EDTA, 10 mM tris-base], containing 1 mg/ml proteinase K for 60 min at 37° C. Thereafter, the gels were rinsed with distilled water, incubated in alkaline electrophoresis buffer for 30 min at 37° C., and electrophoresed at 300 mA for 60 min. The gels were subsequently rinsed with distilled water and placed into 1 M ammonium acetate for 30 min. They were further soaked in 100% ethanol for 2 h, dried overnight and subsequently stained with SYBR Gold ( 1/10000 dilution of stock supplied from Molecular Probes, OR) for 20 min. For evaluation of comets, DNA damage was assessed using the Tail Moment parameter (i.e. the product of the distance between the barycentres of the head and the tail of the comet. A minimum of 50 cell comets were analyzed for each sample using ALKOMET v3.1 software, and values are an average of tail moments for the entire cell population.
Cell suspensions were diluted to approximately 10^6 cells, and mixed with agarose (1%) in PBS at 37° C. in a 1:10 dilution. The gels were cast on Gelbond strips (Mandel Scientific, Guelph, Canada) using gel casting chambers, as previously described (31), and then immediately placed in a lysis buffer [2.5 M NaCl, 0.1 M tetra-sodium EDTA, 10 mM Tris-base, 1% (w/v) N-lauryl sarcosine, 10% (v/v) DMSO, and 1% (v/v) Triton X-100, pH 10.0]. After being kept on ice for 30 min, the gels were gently rinsed with distilled water and immersed in a second lysis buffer (2.5 M NaCl, 0.1 M tetrasodium EDTA, 10 mM Tris-base) containing 1 mg/ml proteinase K for 60 min at 37° C. Thereafter, the gels were rinsed with distilled water, incubated in alkaline electrophoresis buffer for 30 min at 37° C., and electrophoresed at 300 mA for 60 min. The gels were subsequently rinsed with distilled water and placed in 1 M ammonium acetate for 30 min. They were soaked in 100% ethanol for 2 h, dried overnight, and subsequently stained with SYBR Gold ( 1/10000 dilution of stock supplied from Molecular Probes, Eugene, Oreg.) for 20 min. Comets were visualized at 330× magnification and DNA damage was quantitated using the Tail Moment parameter (i.e., the distance between the barycenter of the head and the tail of the comet multiplied by the percentage of DNA within the tail of the comet). A minimum of 50 cell comets were analyzed for each sample, using ALKOMET version 3.1 image analysis software, and values are averages of tail moments for the entire cell population per sample.

A431 cells [2] = test: Colony forming (clonogenic) assay in A431 cells; details: Homo sapiens, A-431, 144 h, read-out: IC50 colony formation
A431 cells [3] = test: SRB growth inhibition assay in A431 cells; assay type: cell-based, human
Method: All growth inhibitory activities were evaluated using the SRB assay (33). Briefly, following drug treatment, cells were fixed using 50 μL of cold trichloroacetic acid (50%) for 60 min at 4° C., washed five times with tap water, and stained for 30 min at room temperature with SRB (0.4%) dissolved in acetic acid (0.5%). The plates were rinsed five times with 1% acetic acid and allowed to air dry. The resulting colored residue was dissolved in 200 μL of Tris base (10 mM), and the optical density read for each well at 540 nm using a Bio-Rad microplate reader (model 2550). […]
Cell monolayers were continuously exposed to different concentrations of each drug for 72 h. Under short exposure, they were treated with each drug for 2 h and allowed to recover for 72 h in drug-free medium.
To study the reversibility of the antiproliferative effects of our compounds, cells were grown to 70% confluence in 96-well plates and subsequently washed twice with PBS, after which they were exposed to serum-free medium for 18 h. Under continuous exposure, the cells were exposed to different concentrations of each drug for 120 h. Under short exposure, they were exposed to each drug for 2 h, after which they were allowed to recover for 120 h in drug free medium. Growth inhibitory activities were evaluated using the SRB assay as described above.

[4] = Degradation in serum-containing cell culture medium (UV, HPLC); assay type: in vitro ADME; details: bovine, serum-containing cell culture medium (RPMI with 10% serum); RPMI with 10% serum, 37° C.; read-out: half-life (t1/2) by UV spectrophotometry at 340 nm
Method: Thereafter, proteins were precipitated by the addition of acetonitrile (3.5 ml) and the supernatant collected by centrifugation. […] The operating mode was isocratic and two solutions, “A” (50% acetonitrile) and “B” (50% water), were used with a 0.5 ml/min flow rate and a 5 μL injection volume. […] For the rapid quantitation of metabolite, a less polar acetonitrile-water (70:30) eluent was used.
The half-life was estimated by a one-phase exponential decay curve-fit method using the GraphPad software package (GraphPad Software, Inc., San Diego, Calif.).
The half-life of BJ2000 under physiological conditions was studied by UV-spectrophotometry. BJ2000 was dissolved in a minimum volume of DMSO, diluted with RPMI-1640 supplemented with 10% FBS, and absorbencies read at 340 nm in a UV cell maintained at 37° C. with a circulating water bath. The half-life was estimated by a one-phase exponential decay curve-fit method, using the GraphPad software package (GraphPad software, Inc., San Diego, Calif., USA).
Proteins were thereafter precipitated by the addition of acetonitrile (3.5 ml), and the supernatant collected by centrifugation. […] HPLC analyses were performed on a Hewlett Packard 1090 liquid chromatograph, using a Waters C4 15-μm 300×3.9-mm reverse phase column to characterize and quantitate the products resulting from the degradation of BJ2000. […] The peaks were detected at 250 nm.

NIH3T3HER14 cells = test: Growth factor-stimulated proliferation in NIH3T3HER14 cells (SRB); assay type: cell-based, mouse; details: NIH3T3HER14, 72 h
Method: To study the effect of our compounds on growth factors stimulated proliferation, cells were grown to 70% confluence in 48-well plates and washed twice with PBS, after which they were exposed to serum-free medium for 18 h. The cells were then exposed to each drug and growth factors (EGF, TGFα, PDGF or serum) for 72 h and cell growth measured using the sulforhodamine B (SRB) assay (33). Briefly, following drug treatment, cells were fixed using 50 μl of cold trichloroacetic acid (50%) for 60 min at 4° C., washed five times with tap water, and stained for 30 min at room temperature with SRB (0.4%) dissolved in acetic acid (0.5%). The plates were rinsed five times with 1% acetic acid and allowed to air dry. […] Each point represents the average of at least two independent experiments run in triplicate.

[5] = biological target: T1, cytoplasmic domain of the insulin receptor β subunit (Homo sapiens, UniProt P06213); test: insulin receptor kinase ELISA; assay type: biochemical; details: 1-100 μM range
T1 construct: Baculovirus-expressed cytoplasmic domain of the insulin receptor β subunit; purchased Biomol Research laboratories Inc., USA; host or cells: Baculovirus expression
T1 sequence (P06213 980-1382 limits assumed): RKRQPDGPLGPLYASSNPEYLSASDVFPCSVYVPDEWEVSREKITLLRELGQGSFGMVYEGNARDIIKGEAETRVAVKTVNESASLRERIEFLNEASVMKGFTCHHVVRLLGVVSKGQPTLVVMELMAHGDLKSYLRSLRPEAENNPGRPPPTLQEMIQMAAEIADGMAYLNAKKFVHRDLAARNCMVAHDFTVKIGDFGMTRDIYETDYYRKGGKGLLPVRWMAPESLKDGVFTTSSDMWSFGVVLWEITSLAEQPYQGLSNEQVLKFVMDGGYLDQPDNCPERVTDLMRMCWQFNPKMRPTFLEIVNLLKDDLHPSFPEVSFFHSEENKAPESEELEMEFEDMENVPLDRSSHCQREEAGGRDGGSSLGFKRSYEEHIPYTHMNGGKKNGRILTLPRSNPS
Method: (§1) Conditions for the c-src and insulin kinase assays were similar to those of the EGFR kinase assay, with the exception of the addition of 1 mM manganese chloride to the assay buffer, and a final ATP concentration of 100 μM. The reaction was terminated by the addition of 50 μl of a 250 mM solution of EDTA prior to aspiration.

EGFR [6] = biological target: T2, EGFR (Homo sapiens, UniProt P00533); test: Reverse EGFR autophosphorylation (reversibility) assay in A431 cells; assay type: cell-based; details: A431, 30 μM, 90 min
T2 sequence (P00533 25-1210): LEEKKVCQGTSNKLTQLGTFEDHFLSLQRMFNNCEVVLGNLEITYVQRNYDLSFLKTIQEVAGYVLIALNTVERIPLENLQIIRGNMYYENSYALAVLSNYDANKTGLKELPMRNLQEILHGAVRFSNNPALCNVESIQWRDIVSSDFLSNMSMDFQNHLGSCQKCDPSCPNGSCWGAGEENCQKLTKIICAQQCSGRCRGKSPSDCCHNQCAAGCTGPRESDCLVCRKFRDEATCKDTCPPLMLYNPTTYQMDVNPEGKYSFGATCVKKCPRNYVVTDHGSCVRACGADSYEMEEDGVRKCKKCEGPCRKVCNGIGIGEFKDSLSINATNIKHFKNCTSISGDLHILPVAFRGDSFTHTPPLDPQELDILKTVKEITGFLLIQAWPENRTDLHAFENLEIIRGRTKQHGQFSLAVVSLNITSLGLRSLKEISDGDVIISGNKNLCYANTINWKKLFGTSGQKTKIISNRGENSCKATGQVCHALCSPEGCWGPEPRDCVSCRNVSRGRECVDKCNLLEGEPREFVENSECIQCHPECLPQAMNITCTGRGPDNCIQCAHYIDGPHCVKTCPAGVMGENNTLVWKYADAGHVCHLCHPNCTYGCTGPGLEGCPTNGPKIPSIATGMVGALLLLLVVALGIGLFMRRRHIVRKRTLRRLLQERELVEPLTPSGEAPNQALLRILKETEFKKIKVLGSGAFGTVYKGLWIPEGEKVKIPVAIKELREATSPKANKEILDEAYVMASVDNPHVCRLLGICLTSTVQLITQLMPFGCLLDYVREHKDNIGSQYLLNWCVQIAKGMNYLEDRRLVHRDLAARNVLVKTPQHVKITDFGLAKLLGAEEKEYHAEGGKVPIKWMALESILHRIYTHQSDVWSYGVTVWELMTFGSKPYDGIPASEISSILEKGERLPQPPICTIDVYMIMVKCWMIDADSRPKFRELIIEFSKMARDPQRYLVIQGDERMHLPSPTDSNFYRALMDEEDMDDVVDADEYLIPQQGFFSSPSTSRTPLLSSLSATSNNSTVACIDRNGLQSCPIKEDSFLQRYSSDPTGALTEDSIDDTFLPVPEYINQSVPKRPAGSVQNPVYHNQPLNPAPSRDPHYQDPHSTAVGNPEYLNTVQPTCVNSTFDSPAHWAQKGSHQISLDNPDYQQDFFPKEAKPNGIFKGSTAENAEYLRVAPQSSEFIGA
Method: To test this hypothesis, the reversibility assay (40, 41) was used, according to which the cells are treated with the drug for 90 min after which the culture medium is repeatedly removed and replaced 3 times, followed by the measurement of EGFR autophosphorylation.
A431 cells were grown to confluence in 6-well plates and then incubated in serum-free medium for 18 h (41). Duplicate sets of cells were then treated with 30 μM of each compound for 90 min. One set of cells was then stimulated with EGF (100 ng/ml) for 10 min and extracts were made as described under the Western blotting procedure above. The other set of cells was washed free of each compound with warmed serum-free media and incubated for 2 h. Thereafter, the cells were washed, incubated for another 2 h, washed again, and then incubated for a further 4 h. This set of cells was then stimulated with EGF and extracts were prepared as for the first set.

human c-src = biological target: T3, human c-src (Homo sapiens, UniProt P12931); test: c-src kinase ELISA; assay type: biochemical; details: 1-100 μM range
T3 construct: purchased Upstate NY; host or cells: Baculovirus expression
T3 sequence (P12931 whole entry): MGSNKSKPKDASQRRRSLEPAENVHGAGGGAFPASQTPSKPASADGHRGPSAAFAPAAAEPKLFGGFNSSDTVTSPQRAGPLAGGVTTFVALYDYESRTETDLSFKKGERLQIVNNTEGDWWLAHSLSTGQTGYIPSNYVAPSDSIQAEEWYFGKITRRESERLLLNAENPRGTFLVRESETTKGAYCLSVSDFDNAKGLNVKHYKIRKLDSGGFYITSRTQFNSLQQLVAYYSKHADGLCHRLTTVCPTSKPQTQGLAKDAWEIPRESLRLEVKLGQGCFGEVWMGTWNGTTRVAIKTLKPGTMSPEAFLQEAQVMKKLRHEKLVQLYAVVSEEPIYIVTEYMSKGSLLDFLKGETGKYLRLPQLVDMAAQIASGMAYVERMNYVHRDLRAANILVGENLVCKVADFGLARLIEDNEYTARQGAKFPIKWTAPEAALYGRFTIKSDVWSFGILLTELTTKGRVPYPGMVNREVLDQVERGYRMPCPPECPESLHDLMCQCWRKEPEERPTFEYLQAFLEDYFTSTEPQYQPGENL
Method: as §1

EGFR [7] = biological target: T2, EGFR; test: EGFR TK ELISA with PGT substrate (competitive binding at the ATP site); assay type: biochemical; parameters: purchased BIOMOL (Plymouth Meeting); also a gift from Pfizer Inc
Method: The ability of the combi-molecules to block EGFR TK activity was determined by an ELISA assay using poly(L-glutamic acid-L-tyrosine, 4:1) PGT as a substrate and commercially available EGFR.
Nunc MaxiSorp 96-well plates were incubated overnight at 37° C. with 100μL per well of 0.25 mg/mL PGT in PBS. Excess PGT was removed and the plates were washed 3 times with Tween 20 (0.1%) in PBS. […] The compound was added and phosphorylation initiated by the addition of ATP (20 μM). After 8 min at room temperature with constant shaking, the reaction was terminated by the aspiration of the reaction mixture and by rinsing the plate 4 times with wash buffer (Tween 20 (0.1%) in PBS). […] Antibody was removed by aspiration, and the plates washed 4 times with wash buffer. The signals were developed by the addition of 50 μL per well of TMB peroxidase substrate (Kierkegaard and Perry Laboratories, Gaithersberg, Md.).
This assay is similar to the one previously described. Nunc MaxiSorp 96-well plates were incubated overnight at 37° C. with 100 μl/well of 25 ng/ml PGT in PBS. Excess PGT was removed and the plates were washed three times with wash buffer (Tween 20 (0.1%) in PBS). […] The compound was added and phosphorylation initiated by the addition of ATP (20 μM). After 8 min at room temperature with constant shaking, the reaction was terminated by aspirating the mixture and by rinsing the plates four times with wash buffer Tween 20 (0.1%) in PBS. […] Antibody was removed by aspiration, and the plate washed four times with wash buffer. The signals were developed by the addition of 50 μl/well of 3,3′,5,5′-tetramethylbenzidine (TMB) peroxidase substrate (Kierkegaard and Perry Laboratories, Gaithersberg, Md., USA).

A431 cells [8] = test: SRB growth inhibition assay in A431 cells; assay type: cell-based; details: Homo sapiens, A-431, 96 h, read-out: IC50 growth inhibition
EGFR [9] = biological target: T2, EGFR; test: cell-based
Method: The inhibition of receptor autophosphorylation in viable cells was determined by anti-phosphotyrosine Western Blots. A431 cells were pre-incubated overnight for 24 h at 37° C. in a 6-well plate (1×10^6) with 0.1% serum, after which they were exposed to a range of doses for each drug for 2 h and subsequently treated with 50 ng/mL EGF for 30 min at 37° C. The cells were thereafter washed with PBS and re-suspended in cold lysis buffer [50 mM Tris-HCl pH 7.5; 150 mM NaCl; 1% NP40, 1 mM EDTA; 5 mM NaF; 1 mM Na3VO4; protease inhibitor tablet (Roche Biochemicals, Laval, Canada)]. The lysates were kept on ice for 30 min and collected by centrifugation at 10 000 rpm for 20 min at 4° C. The protein concentrations were determined against a standardized control using the Bio-Rad protein assay kit (Bio-Rad Laboratories, Hercules, Calif.). […] Non-specific binding on the PVDF membrane was minimized with a blocking buffer containing nonfat dry milk (3%) in PBS. The membrane was blotted with primary antibodies [either antiphosphotyrosine antibody (UBI, Lake Placid, N.Y.) for the detection of phosphotyrosine, or anti-EGFR (Neomarkers, Fremont, Calif.) for the determination of corresponding receptor levels], and anti-β-tubulin (Neomarkers, Fremont, Calif.) for the detection of equal loading. Thereafter, blots were incubated with HRP-goat anti-mouse antibody (1:200 dilution; Bio-Rad Laboratories, Hercules, Calif.) and the bands visualized with an enhanced chemiluminescence system (Amersham Pharmacia Biotech, Buckinghamshire, UK). Band intensities were measured using the SynGene GeneTools software package (Cambridge, UK).
The inhibition of receptor autophosphorylation in viable cells was determined by anti-phosphotyrosine Western Blots. […] Protein concentrations were determined against a standardized control using the Bio-Rad protein assay kit (Bio-Rad Laboratories, Hercules, Calif.). […] Band intensities were measured using the SynGene GeneTools software package (Cambridge, UK).

[10] = system: NIH3T3 and NIH3T3HER14 cells; test: MTT cytotoxicity assay in NIH3T3 / NIH3T3HER14; assay type: cell-based, mouse
Method: The cytotoxic effects of our compounds were evaluated using the 3-(4,5-dimethylthiazo-2-yl)-2,5-diphenyltetrazolium bromide (MTT) assay (42) with minor modifications. Briefly, cells were grown in 24-well plates and then exposed to the compounds for 96 h. MTT (50μl) of (5 mg/ml in sterile PBS) was added to 500 μl of media and the plates were incubated for 2-3 h at 37° C. […] Each point represents the average of at least two independent experiments run in duplicate.

[11] = biological target: T1, cytoplasmic domain of the insulin receptor β subunit; details: read-out: IC50 insulin receptor (positive control); cited from earlier work
[12] = Homo sapiens, A-431, 72 h, 72 h continuous exposure, SRB, A431, read-out: IC50 growth inhibition
[13] = Homo sapiens, A-431, read-out: IC50 growth inhibition
[14] = ELISA, PGT substrate, purified EGFR, ATP 20 μM, 8 min, read-out: IC50, inhibition of EGFR TK (competitive binding at ATP site)

Compound: COCCNN=Nc1ccc2ncnc(Nc3cccc(C)c3)c2c1 [E R1=MeOCH2CH2—]
IC50 (EGFR [7]): 0.196 ± 0.031 µM

Compound: Cc1cccc(Nc2ncnc3ccc(N(C)C(=O)N(CCCl)N=O)cc23)c1 [FD137, N-(2-Chloroethyl)-N′-methyl-N′-(4-m-tolylaminoquinazolin-6-yl)-N-nitrosourea]
melting point: 150 to 151 °C (dec.) | level of DNA lesions compared with BCNU (A431 cells [1]; A431): lower levels of DNA lesions than BCNU | DNA damage (comet tail moment) (A431 cells [1]): dose-dependent increase in DNA single strand breaks | IC50 (A431 cells [8]): 0.8 µM | fold more potent than BCNU (A431 cells [3]): 50 fold

Compound: O=NN(CCCl)C(=O)NCCCl [BCNU, bis-chloroethyl-N-nitrosourea, reference compound]
IC50 (A431 cells [8]): 40 µM

Compound: Cc1cccc(Nc2ncnc3ccc(N(C)C(=O)NCCCl)cc23)c1
melting point: 150 to 151 °C (dec.)

Compound: COCCNN=Nc1ccc2ncnc(Nc3cccc(Br)c3)c2c1 [D R1=MeOCH2CH2—]
IC50 (EGFR [7]; Table 1, means and SE's of two separate experiments, read-out: IC50 (μM), inhibition of EGFR tyrosine kinase activity): 0.071 ± 0.029 µM

Compound: Cc1cccc(Nc2ncnc3ccc(N)cc23)c1 [SMA52, 6-amino-4-[(m-tolyl)amino]quinazoline]
DNA damage (comet tail moment) (A431 cells [1]): does not possess DNA damaging properties | IC50 (A431 cells [2]): 3.7 µM | IC50 (EGFR [9]): 8.44 µM | IC50 (A431 cells [3]; Homo sapiens, A-431, 72 h, read-out: IC50 growth inhibition): 59 µM | IC50 (A431 cells [3]; [13]): > 100 µM | IC50 (EGFR [7]): 1.02 µM | IC50 (EGFR [7]; [14]): 1 µM

Compound: Cn1nnc2c(C(N)=O)ncn2c1=O [TEM, temozolomide, reference compound]
IC50 (EGFR [9]): > 100 µM | fold greater cytotoxic activity in EGFR transfectant NIH3T3HER14 than in parental NIH3T3 [10]: no differential cytotoxicity | antiproliferative activity under short and continuous exposure (A431 cells [3]; 2 h + 72 h recovery and 72 h continuous, A431): inactive | IC50 (A431 cells [3]; [12]): 366 µM | IC50 (EGFR [7]; [14]): > 100 µM

Compound: CC(=O)OCOC(c1ccc2ccccc2c1)P(=O)(OCOC(C)=O)OCOC(C)=O (centres unmarked) [HNPMA-(AM)3]
IC50 [11]: 100 µM

Second part, led by results:

IC50 (A431 cells [2]): 4 µM | IC50 (A431 cells [3]; 72 h continuous exposure, SRB, A431, read-out: IC50 growth inhibition): ~30 µM | IC50 (A431 cells [3]; Homo sapiens, A-431, 2 h exposure then 72 h recovery in drug-free medium, SRB, A431, read-out: IC50 growth inhibition): 36 µM | IC50 (A431 cells [3]; [12]): 36 µM | half-life [4]: ~30 min
Compound: CNN=Nc1ccc2ncnc(Nc3cccc(C)c3)c2c1 [SMA41]
concentration range with significant comet tail moment / DNA damage (A431 cells [1]; A431, 30 min and 2 h exposure): 6 to 25 µM and 6.25 to 25 µM | DNA damage (comet tail moment) (A431 cells [1]): capable of inducing DNA damage in a dose-dependent manner | concentration range with nuclear condensation (A431 cells [1]; A431, 2 h): 25 to 100 µM

EGF-dependent EGFR autophosphorylation immediately after drug exposure (EGFR [6]): completely suppressed | effect on c-src TK activity (human c-src): did not block c-src TK activity | IC50 (A431 cells [3]; [13]): > 100 µM
Compound: Nc1ccc2ncnc(Nc3cccc(Cl)c3)c2c1 [FD105]
concentration giving 100% growth inhibition (NIH3T3HER14 cells; EGF or TGFα-induced proliferation): 1 µM | concentration giving 100% inhibition (NIH3T3HER14 cells; PDGF-stimulated growth): approximately 30 μM | effect on insulin receptor TK [5]: nor did it exert any effect on insulin receptor TK | DNA damage (comet tail moment) (A431 cells [1]): non-DNA damaging agent

IC50 (EGFR [7]): ~0.05 µM
Compound: CNc1ccc2ncnc(Nc3cccc(C)c3)c2c1 [FD110]
